Measured values taken from PubChem BioAssay AID2060606 (Molecular Pharmacology Branch, DTP, NCI, 2025).
pIC50: −log10 of the molar value.

Test system: 922993-354-T-J3-PDC complex spheroids, viability, % test/control
Assay: Anticancer human tumor 922993-354-T-J3-PDC patient-derived endometrial carcinoma cell line growth inhibition [CLK]
Details: for pIC50: curve of first compound; for viability, T/C: stronger effect = lower value
Method in brief: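 Multi-cell-type spheroids combined patient-derived tumor cells with HUVEC endothelial cells and human mesenchymal stem cells. Paired agents were dosed in half-log steps down from about clinical Cmax, or from 10 microM where Cmax was unknown.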

[1] = second compound 0.0316 µM, first compound 0.0316 µM
[2] = second compound 0.0316 µM, first compound 0.1 µM
[3] = second compound 0.0316 µM, first compound 0.316 µM
[4] = second compound 0.0316 µM, first compound 1 µM
[5] = second compound 0.1 µM, first compound 0.0316 µM
[6] = second compound 0.1 µM, first compound 0.1 µM
[7] = second compound 0.1 µM, first compound 0.316 µM
[8] = second compound 0.1 µM, first compound 1 µM
[9] = second compound 0.316 µM, first compound 0.0316 µM
[10] = second compound 0.316 µM, first compound 0.1 µM
[11] = second compound 0.316 µM, first compound 0.316 µM
[12] = second compound 0.316 µM, first compound 1 µM
[13] = second compound 1 µM, first compound 0.0316 µM
[14] = second compound 1 µM, first compound 0.1 µM
[15] = second compound 1 µM, first compound 0.316 µM
[16] = second compound 1 µM, first compound 1 µM
[17] = second compound 3.16 µM, first compound 0.0316 µM
[18] = second compound 3.16 µM, first compound 0.1 µM
[19] = second compound 3.16 µM, first compound 0.316 µM
[20] = second compound 3.16 µM, first compound 1 µM
[21] = second compound 10 µM, first compound 0.0316 µM
[22] = second compound 10 µM, first compound 0.1 µM
[23] = second compound 10 µM, first compound 0.316 µM
[24] = second compound 10 µM, first compound 1 µM
[25] = second compound 0.0316 µM, first compound 0.00316 µM
[26] = second compound 0.0316 µM, first compound 0.01 µM
[27] = second compound 0.1 µM, first compound 0.00316 µM
[28] = second compound 0.1 µM, first compound 0.01 µM
[29] = second compound 0.316 µM, first compound 0.00316 µM
[30] = second compound 0.316 µM, first compound 0.01 µM
[31] = second compound 1 µM, first compound 0.00316 µM
[32] = second compound 1 µM, first compound 0.01 µM
[33] = second compound 3.16 µM, first compound 0.00316 µM
[34] = second compound 3.16 µM, first compound 0.01 µM
[35] = second compound 10 µM, first compound 0.00316 µM
[36] = second compound 10 µM, first compound 0.01 µM
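Note: spheroids exposed to the agents for 7 days before readout.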

## CC(Nc1ccc2c(c1)OCCn1cc(N3C(=O)OCC3C(F)F)nc1-2)C(N)=O (stereo unspecified) + CNC(=O)c1ccc(Nc2nc(OC3CCCC3)c3c(-c4ccc5nc(C)oc5c4)c[nH]c3n2)c(OC)c1
Second compound 0.0316 µM
  pIC50: 5.42
Second compound 0.1 µM
  pIC50: 5.38
Second compound 0.316 µM
  pIC50: 5.71
Second compound 1 µM
  pIC50: > 7.50
Second compound 3.16 µM
  pIC50: > 7.50
Second compound 10 µM
  pIC50: > 7.50
[1]
  viability, T/C: 116%
[2]
  viability, T/C: 106%
[3]
  viability, T/C: 84.8%
[4]
  viability, T/C: 70.6%
Second compound 0.0316 µM, first compound 3.16 µM
  viability, T/C: 57%
Second compound 0.0316 µM, first compound 10 µM
  viability, T/C: 31.7%
[5]
  viability, T/C: 108%
[6]
  viability, T/C: 102%
[7]
  viability, T/C: 99.5%
[8]
  viability, T/C: 74.5%
Second compound 0.1 µM, first compound 3.16 µM
  viability, T/C: 55.9%
Second compound 0.1 µM, first compound 10 µM
  viability, T/C: 37%
[9]
  viability, T/C: 71.7%
[10]
  viability, T/C: 69.3%
[11]
  viability, T/C: 77.6%
[12]
  viability, T/C: 63.8%
Second compound 0.316 µM, first compound 3.16 µM
  viability, T/C: 40%
Second compound 0.316 µM, first compound 10 µM
  viability, T/C: 31.8%
[13]
  viability, T/C: 39.8%
[14]
  viability, T/C: 36.5%
[15]
  viability, T/C: 26.4%
[16]
  viability, T/C: 23.1%
Second compound 1 µM, first compound 3.16 µM
  viability, T/C: 15.2%
Second compound 1 µM, first compound 10 µM
  viability, T/C: 10.8%
[17]
  viability, T/C: 35.1%
[18]
  viability, T/C: 27.4%
[19]
  viability, T/C: 24%
[20]
  viability, T/C: 16.3%
Second compound 3.16 µM, first compound 3.16 µM
  viability, T/C: 12.3%
Second compound 3.16 µM, first compound 10 µM
  viability, T/C: 10.8%
[21]
  viability, T/C: 28.9%
[22]
  viability, T/C: 27.2%
[23]
  viability, T/C: 21.5%
[24]
  viability, T/C: 17.6%
Second compound 10 µM, first compound 3.16 µM
  viability, T/C: 13.4%
Second compound 10 µM, first compound 10 µM
  viability, T/C: 9.54%

## CCN1CCN(Cc2ccc(Nc3ncc(F)c(-c4cc(F)c5nc(C)n(C(C)C)c5c4)n3)nc2)CC1 + CNC(=O)c1ccc(Nc2nc(OC3CCCC3)c3c(-c4ccc5nc(C)oc5c4)c[nH]c3n2)c(OC)c1
Second compound 0.0316 µM
  pIC50: < 6.00
Second compound 0.1 µM
  pIC50: < 6.00
Second compound 0.316 µM
  pIC50: 6.53
Second compound 1 µM
  pIC50: > 8.50
Second compound 3.16 µM
  pIC50: > 8.50
Second compound 10 µM
  pIC50: > 8.50
[25]
  viability, T/C: 106%
[26]
  viability, T/C: 93.2%
[1]
  viability, T/C: 98.5%
[2]
  viability, T/C: 88.5%
[3]
  viability, T/C: 69%
[4]
  viability, T/C: 59.9%
[27]
  viability, T/C: 103%
[28]
  viability, T/C: 93.4%
[5]
  viability, T/C: 92.4%
[6]
  viability, T/C: 76.7%
[7]
  viability, T/C: 66.9%
[8]
  viability, T/C: 53.8%
[29]
  viability, T/C: 58%
[30]
  viability, T/C: 59.2%
[9]
  viability, T/C: 57.4%
[10]
  viability, T/C: 56.4%
[11]
  viability, T/C: 45.5%
[12]
  viability, T/C: 45.7%
[31]
  viability, T/C: 35.6%
[32]
  viability, T/C: 33.6%
[13]
  viability, T/C: 33.6%
[14]
  viability, T/C: 35.9%
[15]
  viability, T/C: 30.5%
[16]
  viability, T/C: 38.1%
[33]
  viability, T/C: 29.4%
[34]
  viability, T/C: 27.9%
[17]
  viability, T/C: 30.5%
[18]
  viability, T/C: 31.5%
[19]
  viability, T/C: 31.6%
[20]
  viability, T/C: 35.5%
[35]
  viability, T/C: 28.6%
[36]
  viability, T/C: 29.2%
[21]
  viability, T/C: 31.9%
[22]
  viability, T/C: 29%
[23]
  viability, T/C: 38.4%
[24]
  viability, T/C: 36.3%

## COc1c(OCCCN2CCOCC2)ccc2c3n(c(=NC(=O)c4cnc(N)nc4)nc12)CCN3 + CNC(=O)c1ccc(Nc2nc(OC3CCCC3)c3c(-c4ccc5nc(C)oc5c4)c[nH]c3n2)c(OC)c1
Second compound 0.0316 µM
  pIC50: 6.67
Second compound 0.1 µM
  pIC50: 6.62
Second compound 0.316 µM
  pIC50: 6.77
Second compound 1 µM
  pIC50: > 8.50
Second compound 3.16 µM
  pIC50: > 8.50
Second compound 10 µM
  pIC50: > 8.50
[25]
  viability, T/C: 92.2%
[26]
  viability, T/C: 88.6%
[1]
  viability, T/C: 83.5%
[2]
  viability, T/C: 72.2%
[3]
  viability, T/C: 38.9%
[4]
  viability, T/C: 14.8%
[27]
  viability, T/C: 123%
[28]
  viability, T/C: 100%
[5]
  viability, T/C: 108%
[6]
  viability, T/C: 78.2%
[7]
  viability, T/C: 40%
[8]
  viability, T/C: 15%
[29]
  viability, T/C: 90.5%
[30]
  viability, T/C: 87.9%
[9]
  viability, T/C: 74.4%
[10]
  viability, T/C: 63.5%
[11]
  viability, T/C: 35.6%
[12]
  viability, T/C: 10.8%
[31]
  viability, T/C: 42.2%
[32]
  viability, T/C: 37%
[13]
  viability, T/C: 27.9%
[14]
  viability, T/C: 20.6%
[15]
  viability, T/C: 10.1%
[16]
  viability, T/C: 1.71%
[33]
  viability, T/C: 32.6%
[34]
  viability, T/C: 28.9%
[17]
  viability, T/C: 22.5%
[18]
  viability, T/C: 11.8%
[19]
  viability, T/C: 7.41%
[20]
  viability, T/C: 1.47%
[35]
  viability, T/C: 31.1%
[36]
  viability, T/C: 25.5%
[21]
  viability, T/C: 20%
[22]
  viability, T/C: 11.7%
[23]
  viability, T/C: 7.11%
[24]
  viability, T/C: 1.68%
